Assay results: PMC4186475 (Influenza and Other Respiratory Viruses, 2013)

How the values were obtained:
[1] = tested on: neuraminidase (NA) of influenza B viruses; type: biochemical, influenza B virus
[2] = tested on: neuraminidase (NA) of influenza A (H3N2) viruses; type: biochemical, influenza A (H3N2) virus

Compound | Fold change in IC50 of test viruses, Approach #3 [1] | fold change in IC50 of outliers [1] | Fold change in IC50 of test viruses, Approach #1 [2] | Fold change in IC50 of test viruses, Approach #2 [2] | Fold change in IC50 of test viruses, Approach #3 [2] | fold change in IC50 of outliers [2]
CC(=O)N[C@H]1[C@H]([C@H](O)[C@H](O)CO)OC(C(=O)O)=C[C@@H]1N=C(N)N [Zanamivir, zanamivir] | 5 (1) fold | 5·11 (5) fold | 132 (1) fold | 132 (1) fold | 91 (1) fold | 23·75 (91) fold
CCOC(=O)C1=C[C@@H](OC(CC)CC)[C@H](NC(C)=O)[C@@H](N)C1 [Oseltamivir, Oseltamivir (carboxylate)] | 6 (1) fold | 53·02 (6) fold | – | – | – | –
